The text below walks through data of patent US4107299A, “Cardioactive 12-epi-digoxin and derivatives thereof” (Boehringer Mannheim GmbH, priority 1975, dated 1978).

The term EC50 denotes the concentration giving half of the maximal effect.

In this assay the test system is insulated, electrically stimulated left atrium of the guinea pig. Nature of the assay: Therapeutic effect and therapeutic spectrum at the insulated, electrically stimulated left atrium of the guinea pig. The assay is classed as cell-based. The following applies: mean and average deviation; for EC50 / Emax: Cavia porcellus; for therapeutic spectrum: quotient EC50 decrease/EC50 increase; for Emax: in percentage of the decrease of the amplitude by reduction of the calcium content (1.8 to 0.45 mVal), read-out: Contraction Amplitude maximum increase (%); for Contraction Amplitude maximum increase: maximum contraction amplitude with increasing glycoside concentrations, calcium reduced from 1.8 to 0.45 mVal, 31° C, 3 Hz. Here is the method:
Comparison of the therapeutic spectrum of various cardioactive glycosides was undertaken, employing electrical stimulation of the insulated left atrium of guinea pigs. Specifically, the left atrium was suspended in Tyrode solution at 31° C and electrically stimulated by a frequency of 3 Hz with rectangular impulses of 2 m sec. duration and optimum tension. The maximum contraction strength was registered semi-isometrically.
When a constant contraction amplitude has set in, the calcium concentration was reduced from 1.8 to 0.45 mVal. The initial tension was adjusted to 1 g at the start of the test; if necessary, it was adjusted after the readjustment to a solution poor in calcium, however, no longer changed during the further course of the experiment.
Of the glycosides to be tested, stock solutions were prepared in dimethyl acetamide and, for the test with NaCl-solution so diluted that the stated end concentrations were obtained with the addition of 0.1 ml to a bath volume of 80 ml. It was determined in preliminary tests that up to 0.4 ml undiluted dimethyl acetamide were tolerated without influencing the contractility.
If, after reduction of the calcium concnetration, a constant degree of contraction was again obtained after approximately 10 minutes, concentrations of the glycoside to be tested were added in the ratio 1 + 1 + 2 + 4, etc. The period between the individual additions was 15 minutes.
Prior to the change-over to a calcium-poor Tyrode solution and prior to each addition of glycoside, as well as 15 minutes after the last dose, the prestress was measured in grams and the contraction amplitude in mg. The difference of the amplitude was calculated from the test values for the contraction amplitude after reduction of the calcium content. The difference between the contraction amplitude before and after the change-over to a calcium-poor solution was put as equal to 100% amplitude reduction.
It was determined for each individual atrium when, with administration of increasing concentrations of the glycosides, there was obtained
the maximum contraction amplitude ("maximum increase");
increase of the amplitude to 50% of the difference between normal and reduced calcium content ("EC50 increase");
decrease of the contraction amplitude to the same height ("EC50 decrease");
the therapeutic spectrum quotient of the two EC50, i.e. EC50 decrease/EC50 increase.
With these evaluation processes, there are obtained numerical data for the concentration and the period during which the corresponding effect was observed. In order to obtain a uniform basis for the evaluation, differences in the time of the appearance were converted into concentrations according to the following method:
The logarithm of the concentration was graphically plotted against the time in such manner that the lowest concentration was put at 15 minutes, the next higher one at 30 minutes, etc. The evaluation of the tests yielded the time after the start of the test at which the respective effect had appeared. The concentration pertaining to it was read from the diagram.
This procedure is based on the assumption that the concentration increases exponentially at the place of the effect. De facto this assumption is more correct than a regular increase in concentration in stages in the bath liquid since there is a substantial time lapse between the increase of the concentration in the bath and in the tissue.
In addition, the maximum degree of […] was measured in all tests under the influence of the glycosides and in percentage of the decrease of the amplitude by reduction of the calcium content.

[1] abbreviates: decrease of the contraction amplitude to the same height (50%) at higher concentrations, read-out: EC50 decrease.
The mark [2] stands for this setting: increase of the amplitude to 50% of the difference between normal and reduced calcium content, read-out: EC50 increase.

Read-outs that look alike come from different tables or passages of the source.

As for `CC(=O)O[C@H]1C[C@H](O[C@H]2[C@@H](O)C[C@H](O[C@H]3[C@@H](O)C[C@H](O[C@H]4CC[C@@]5(C)[C@H](CC[C@@H]6[C@@H]5C[C@H](O)[C@]5(C)[C@@H](C7=CC(=O)OC7)CC[C@]65O)C4)O[C@@H]3C)O[C@@H]2C)O[C@H](C)[C@H]1O` [Example 5, α-Acetyl-12-epi-digoxin], the therapeutic spectrum turned out to be 3.40±0.40. The EC50 under setting [1] amounted to 2.78 ± 0.28 µM. Moreover, under setting [2], the EC50 worked out at 0.848 ± 0.09 µM.
In the same order, the values of `CO[C@H]1[C@@H](O)C[C@H](O[C@H]2[C@@H](O)C[C@H](O[C@H]3[C@@H](O)C[C@H](O[C@H]4CC[C@@]5(C)[C@H](CC[C@@H]6[C@@H]5C[C@H](O)[C@]5(C)[C@@H](C7=C(C)C(=O)OC7)CC[C@]65O)C4)O[C@@H]3C)O[C@@H]2C)O[C@@H]1C` [Example 12, 22-Methyl-12-epi-β-methyldigoxin] are 5.15±0.59, 17 ± 1.7 µM and 3.55 ± 0.41 µM.
For the compound `CO[C@H]1[C@@H](O)C[C@H](O[C@H]2[C@@H](O)C[C@H](O[C@H]3[C@@H](O)C[C@H](O[C@H]4CC[C@@]5(C)[C@H](CC[C@@H]6[C@@H]5C[C@H](OC(C)=O)[C@]5(C)[C@@H](C7=CC(=O)OC7)CC[C@]65O)C4)O[C@@H]3C)O[C@@H]2C)O[C@@H]1C` [Example 18, 12-Acetyl-12-epi-β-methyldigoxin], the therapeutic spectrum was 6.50±1.5. Further, the EC50 under setting [1] is 25.6 ± 2.9 µM. For the same compound, the EC50 under setting [2] was 4.71 ± 0.81 µM.
`CO[C@H]1[C@@H](O)C[C@H](O[C@H]2[C@@H](O)C[C@H](O[C@H]3[C@@H](O)C[C@H](O[C@H]4CC[C@@]5(C)[C@H](CC[C@@H]6[C@@H]5C[C@H](O)[C@]5(C)[C@@H](C7=C(C(C)C)C(=O)OC7)CC[C@]65O)C4)O[C@@H]3C)O[C@@H]2C)O[C@@H]1C` [Example 14, 22-Isopropyl-12-epi-β-methyldigoxin] came in with a therapeutic spectrum of 3.08±0.45. Also, the EC50 under setting [1] came out at 61.9 ± 5.2 µM. For the same compound, under setting [2], the EC50 worked out at 21.6 ± 1.9 µM.
In the same order, the values of `C#CCC1=C([C@H]2CC[C@]3(O)[C@@H]4CC[C@@H]5C[C@@H](O[C@H]6C[C@H](O)[C@H](O[C@H]7C[C@H](O)[C@H](O[C@H]8C[C@H](O)[C@H](OC)[C@@H](C)O8)[C@@H](C)O7)[C@@H](C)O6)CC[C@]5(C)[C@H]4C[C@H](O)[C@]23C)COC1=O` [Example 26, 22-Propargyl-12-epi-β-methyldigoxin] are 3.94±1.0, 14.6 ± 1.4 µM and 4.46 ± 0.75 µM.
`CCC1=C([C@H]2CC[C@]3(O)[C@@H]4CC[C@@H]5C[C@@H](O[C@H]6C[C@H](O)[C@H](O[C@H]7C[C@H](O)[C@H](O[C@H]8C[C@H](O)[C@H](OC)[C@@H](C)O8)[C@@H](C)O7)[C@@H](C)O6)CC[C@]5(C)[C@H]4C[C@H](O)[C@]23C)COC1=O` [Example 13, 22-Ethyl-12-epi-β-methyldigoxin] returned a therapeutic spectrum of 7.10±0.74. Also, under setting [1], the EC50 was determined as 40.5 ± 2.6 µM. Besides, the EC50 under setting [2] is 5.9 ± 0.48 µM.
In the same order, the values of `CC(=O)O[C@H]1[C@@H](O)C[C@H](O[C@H]2[C@@H](O)C[C@H](O[C@H]3[C@@H](O)C[C@H](O[C@H]4CC[C@@]5(C)[C@H](CC[C@@H]6[C@@H]5C[C@H](O)[C@]5(C)[C@@H](C7=CC(=O)OC7)CC[C@]65O)C4)O[C@@H]3C)O[C@@H]2C)O[C@@H]1C` [Example 6, β-Acetyl-12-epi-digoxin] are 4.25±0.51, 3.76 ± 0.25 µM and 0.921 ± 0.07 µM.
Consider `CO[C@H]1[C@@H](O)C[C@H](O[C@H]2[C@@H](O)C[C@H](O[C@H]3[C@@H](O)C[C@H](O[C@H]4CC[C@@]5(C)[C@H](CC[C@@H]6[C@@H]5C[C@@H](O)[C@]5(C)[C@@H](C7=CC(=O)OC7)CC[C@]65O)C4)O[C@@H]3C)O[C@@H]2C)O[C@@H]1C` [methyldigoxina., β-methyldigoxin, reference compound], for which the Emax is 75 ± 5%, the “Contraction Amplitude maximum increase” value was found to be 292 ± 56 mg and the therapeutic spectrum is listed as 3.06±0.36. The EC50 under setting [1] is 0.66 ± 0.04 µM. Moreover, under setting [2], the EC50 turned out to be 0.23 ± 0.03 µM.
In the same order, the values of `C[C@H]1O[C@@H](O[C@H]2[C@@H](O)C[C@H](O[C@H]3[C@@H](O)C[C@H](O[C@H]4CC[C@@]5(C)[C@H](CC[C@@H]6[C@@H]5C[C@H](O)[C@]5(C)[C@@H](C7=CC(=O)OC7)CC[C@]65O)C4)O[C@@H]3C)O[C@@H]2C)C[C@H](O)[C@@H]1O` [Example 1, 12-Epi-digoxin] are 92 ± 6.5%, 746 ± 56 mg, 4.49±0.35, 2.48 ± 0.3 µM and 0.557 ± 0.07 µM.
`CCC1=C([C@H]2CC[C@]3(O)[C@@H]4CC[C@@H]5C[C@@H](O[C@H]6C[C@H](O)[C@H](O[C@H]7C[C@H](O)[C@H](O[C@H]8C[C@H](O)[C@H](O)[C@@H](C)O8)[C@@H](C)O7)[C@@H](C)O6)CC[C@]5(C)[C@H]4C[C@H](O)[C@]23C)COC1=O` [Example 9, 22-Ethyl-12-epi-digoxin] gave a therapeutic spectrum of 6.39±0.96. Moreover, the EC50 under setting [1] was 39.3 ± 3 µM. Besides, the EC50 under setting [2] worked out at 6.63 ± 0.75 µM.
The matching figures for `CC(=O)O[C@H]1C[C@H]2[C@@H](CC[C@@H]3C[C@@H](O[C@H]4C[C@H](O)[C@H](O[C@H]5C[C@H](O)[C@H](O[C@H]6C[C@H](O)[C@H](O)[C@@H](C)O6)[C@@H](C)O5)[C@@H](C)O4)CC[C@@]32C)[C@@]2(O)CC[C@H](C3=CC(=O)OC3)[C@@]12C` [Example 7, 12-Acetyl-12-epi-digoxin]: 5.15±0.71, 13.8 ± 0.81 µM and 2.86 ± 0.31 µM.
`CO[C@H]1[C@@H](O)C[C@H](O[C@H]2[C@@H](O)C[C@H](O[C@H]3[C@@H](O)C[C@H](O[C@H]4CC[C@@]5(C)[C@H](CC[C@@H]6[C@@H]5C[C@H](O)[C@]5(C)[C@@H](C7=CC(=O)OC7)CC[C@]65O)C4)O[C@@H]3C)O[C@@H]2C)O[C@@H]1C` [Example 2, 12-Epi-β-methyldigoxin]: the Emax came to 96 ± 6.3%, the “Contraction Amplitude maximum increase” value is 666 ± 78 mg and the therapeutic spectrum is recorded as 8.86±1.17. Further, the EC50 under setting [1] turned out to be 2.78 ± 0.4 µM. For the same compound, the EC50 under setting [2] was 0.315 ± 0.02 µM.
